Paper PMC12921516 (ACS Bio & Med Chem Au, 2025)

How the values were obtained:
HepG2 cells = assay: Western blotting, HepG2 normal model; format: cell-based, human; conditions: 24 h
Description: (§1) HepG2 cells were obtained directly from ATCC (HB-8065) and cultured in DMEM with low glucose, supplemented with fetal bovine serum, 100 U/mL penicillin G, and […] streptomycin. The media was freshly prepared and sterilized by filtration. Cells were maintained with a maximum of 10 passages before being discarded. For cell counting, the cells were washed twice with phosphate-buffered saline (PBS), trypsinized, and counted using a Neubauer chamber. For the insulin-resistant model, 75,000 cells per well were seeded in 6-well plates at 37 °C in 5% CO2 and cultured for 72 h. Subsequently, insulin (0.1 μM) was added to induce insulin resistance for 24 h. After this period, inhibitors were incubated for 24 h, followed by a final 30 min insulin stimulation (0.1 μM) before protein extraction. For the normal model, 75,000 cells per well were seeded in 6-well plates at 37 °C in 5% CO2 and cultured for 96 h. After that, the cells were incubated with the inhibitors for 24 h, followed by protein extraction.
(§2) Treated cells were washed twice with 1 mL of PBS, and proteins were extracted using 300 μL of a buffer solution containing 10% sodium deoxycholate in 10% TEAB, supplemented with a protease and phosphatase inhibitor cocktail. The extracts were heated at 80 °C for 5 min and dissociated by repeated passages through an insulin syringe. The cell extracts were centrifuged at 15,000 rpm for 15 min at 4 °C, and the supernatant was collected. Protein quantification was performed using the bicinchoninic acid assay, and aliquots were prepared for Western blotting. SDS-PAGE was conducted, and proteins were transferred onto a nitrocellulose membrane. The membrane was blocked with 10% skim milk in TBST for 1 h and incubated overnight with primary antibodies (1:400 dilution). Secondary antibodies conjugated to horseradish peroxidase were diluted 1:2,000, and the membranes were incubated for 1 h at room temperature. Blots were visualized using the ChemiDoc MP (Bio-Rad), and densitometric analysis was performed with ImageJ (U.S. National Institutes of Health). Statistical analyses were conducted using GraphPad Prism 8.0.
compounds at 24 h of treatment. β-actin was employed as loading control. b) Densitometric analysis of western blot images
employing ImageJ analysis software. Bar graphs represent the mean ± SEM of normalized values. The control levels were set to
1. Asterisks indicate statistical significance according to the Dunn test. p* < 0.05
(§3) (1 picture or pasted object on this page, not shown here)

[1] = tested on: insulin-resistant HepG2 cells; assay: Western blotting, insulin-resistant HepG2 model; format: cell-based, human; conditions: 24 h
Description: as §1, §2
resistance model in HepG2 cells . a) Western blotting representative analysis (n=3) of PTP1B, p -AKT, p-IRS1 and p-STAT3 levels
of HepG2 cells treated with the compounds at 24 h of treatment. β-actin was employed as loading control. b) Densitometric
analysis of western blot images employing ImageJ analysis software. Bar graphs represent the mean ± SEM of normalized values.
The control levels were set to 1. Asterisks indicate statistical significance according to the Dunn test. p* < 0.05.
as §3

| SMILES | p-STAT3 levels (HepG2 cells) | p-IRS levels (HepG2 cells) | p-IRS levels [1] |
| --- | --- | --- | --- |
| CC1(C)c2[nH]c3ccc(OC(F)F)cc3c2C[C@]2(C)[C@H]3C(=O)C=C4[C@@H]5C[C@@](C)(C(=O)O)CC[C@]5(C)CC[C@@]4(C)[C@]3(C)CC[C@@H]12 [compound 4b, (20β)-5′-(Difluoromethoxy)-11-oxo-1′H-oleana-2,12-dieno[3,2-b]indol-29-oic Acid] | only a minor increase |  |  |
| CC1(C)c2[nH]c3ccc(S(N)(=O)=O)cc3c2C[C@]2(C)[C@H]3C(=O)C=C4[C@@H]5C[C@@](C)(C(=O)O)CC[C@]5(C)CC[C@@]4(C)[C@]3(C)CC[C@@H]12 [compound 4g, (20β)-5′-Sulfamoyl-11-oxo-1′H-oleana-2,12-dieno[3,2-b]indol-29-oic Acid] | slight but not statistically significant increase | slight but not statistically significant increase |  |
| CC1(C)c2c(cnn2-c2ccc(S(N)(=O)=O)cc2)C[C@]2(C)[C@H]3C(=O)C=C4[C@@H]5C[C@@](C)(C(=O)O)CC[C@]5(C)CC[C@@]4(C)[C@]3(C)CC[C@@H]12 [compound 5g, (20β)-11-Oxo-2′-(4-sulfamoylphenyl)-2′H-oleana-2,12-dieno[3,2-c]pyrazol-29-oic Acid] |  |  | tendency to increase p-IRS levels |
